Results from patent US11684599B2, “Very-long-chain polyunsaturated fatty acids, elovanoid hydroxylated derivatives, and methods of use” (Board of Supervisors of Louisiana State University and …, priority 2017, dated 2023).

Experiments:
ARPE-19 cells = test: UOS-induced apoptosis in ARPE-19 cells (Hoechst-positive pyknotic cells); format: cell-based, human; details: for protection against UOS: free fatty acids, ARPE-19 cells; for UOS-induced apoptosis: 200 nM; for UOS-induced apoptotic cell death: concentration-dependent 50-500 nM, highest inhibition at 500 nM, lowest at 50 nM
Protocol: FIGS. 6A and 6B depicts immunostaining of primary human RPE cells using specific markers ZO-1 (Zona occludens-1), RPE65, MITF (Micro-ophtalmia-associated Transcription Factor) and β-catenin, as well as light microscopy depicting primary human RPE cell morphology at different passages in culture. ARPE-19 cells were grown and maintained in T-75 mM flasks in DMEM F-12 medium containing 10% FBS and incubated at 37° C. with a constant supply of 5% CO2. Cells at 75-80% confluence (72 h growth in DMEM/F12+10% FBS) in 6-well plates were serum-starved for 8 h before exposure. […] The serum-starved cells were treated with TNF-α (Sigma-Aldrich, St. Louis, Mo.) (10 ng/ml) and H2O2 (600 μM) to induce oxidative stress and challenged with increasing concentrations (50-500 nM) of VLC-PUFA (C32:6n3 and C34:6n3) simultaneously with oxidative stress for 16 h (apoptosis) and 6 h (Western-blot) before detection of apoptosis and harvesting for protein analysis. In some experiments, DHA at a concentration of 100 nM and 15-LOX-1 inhibitor PD146176 at a concentration of 1 μM was added to treat the RPE cells under stress. Cell extracts were made and protein concentrations adjusted by Bio-Rad (Hercules, Calif.) protein reagent and used for Western blot analysis. To assess cell death, hRPE and ARPE-19 cells were fixed with methanol for 15 mins, washed with 1×PBS then loaded with 2 μM Hoechst dissolved in a Locke's solution (Promega) and incubated for another 15 mins before imaging. Cells were then viewed by using a Zeiss LSM 510 confocal microscope under UV fluorescence. Images were recorded and cell apoptosis was assessed by using an automated unbiased method.

[1] = test system: rats with middle cerebral artery occlusion (MCAo); test: Immunohistochemistry (NeuN, GFAP, SMI-71, IgG) after MCAo; format: in vivo, rat; details: for IgG staining intensity / IgG staining in the cortex: 7 days; for IgG staining intensity: compared with CSF-treated group; for IgG immunoreactivity in subcortex / IgG immunoreactivity in whole hemisphere (total): versus the vehicle group
Protocol: Male Sprague-Dawley rats (Charles River Lab., Wilmington, Mass.) weighing 280-340 g were fasted overnight but allowed free access to water. Atropine sulfate (0.5 mg/kg, i.p.) was injected 10 mins before anesthesia. Anesthesia was induced with 3% isoflurane in a mixture of 70% nitrous oxide and 30% oxygen. All rats were orally intubated and mechanically ventilated. During ventilation, the animals were paralyzed with pancuronium bromide (0.6 mg/kg, i.p.). The catheters were implanted into the right femoral artery and vein for the blood sampling and infusion of drug. Serial analyses of arterial blood gases, plasma glucose, arterial blood pressure and heart beating rate were conducted before and during surgical procedure. Rectal (CMA/150 Temperature Controller, CMA/Microdialysis AB, Stockholm, Sweden) and cranial (temporalis muscle; Omega Engineering, Stamford, Conn.) temperatures were closely monitored before, during and after MCAo. Rectal temperature and body weight were monitored daily until sacrifice.
Rats underwent 2 h of right middle cerebral artery occlusion (MCAo) by an intraluminal-filament. In brief, the right common carotid artery (CCA) bifurcation was exposed through a midline neck incision and the occipital artery branches of the external carotid artery were isolated, ligated and dissected. After careful isolation of the internal carotid artery (ICA), a 3-0 monofilament coated with poly-L-lysine was advanced through the ICA to the MCA until mild resistance was felt. The neck incision was closed with a silk suture and the animals were then allowed to recover. After 2 h of MCAo, rats were re-anesthetized with the same anesthetic combination. Temperature probes were re-inserted, and intraluminal sutures were carefully removed. The animals given free access to food and water for 7 days.
Thirty minutes after suture removal, a brain infusion cannula was implanted into the right lateral ventricle for treatment administration in each rat. Rats were anesthetized with 3% isoflurane and were secured to a stereotaxic apparatus with skull leveled between bregma and lambda. A sterile stainless steel cannula (5-mm long) was implanted into the lateral ventricle using the stereotaxic coordinates (0.2 mm caudal to bregma, 2 mm lateral to midline, and 5 mm below the dura). Cannulas were removed after treatment was completed.
Elovanoids (ELV) as sodium salts (Na) or methyl esters (Me) were dissolved in artificial cerebral spinal fluid (CSF) and administered into right lateral ventricle 1 hour after 2 h of MCAo. The following ELVs were used: ELV-N32-Na, ELV-N32-Me, ELV-N34-Na and ELV-N34-Me (5 μg/[…]) or CSF (50 μl). All treatments were administered by a researcher blinded to the treatment groups.
Brain edema was measured by the differences of ipsi- and contra-lateral hemispheres. Immunohistochemical procedures were performed on the adjacent sections to identify specific vascular and neuronal elements in the ischemic core and penumbra. The following antibodies were used: rat blood-brain barrier (SMI-71, BioLegend, San Diego, Calif.) as a vascular marker; glial fibrillary acid protein (GFAP, Agilent Tech. Santa Clara, Calif.) to label reactive astrocytes; and neuron-specific nuclear protein (NeuN, Chemicon/Millipore, Billerica, Mass.) and biotinylated anti-rat immunoglobulin (IgG) antibody (BioLegend, San Diego, Calif.) to detect BBB breakdown. The number of positive cells and immunopositive vessels were counted in the cortex and striatum at the level of the central lesion (bregma level −0.3 mm). Data were expressed as numbers of positive cells and vessels per high-power microscopic field (magnification ×40).
The images of sections were obtained using confocal laser microscope (LSM510, Carl Zeiss MicroImaging, Irvine, Calif.) following specific experimental protocols. The images were acquired with dimension 212.3 μm×212.3 μm using Zen software (Carl Zeiss MicroImaging). Image analysis was conducted using ImageJ software. […]

Compound | protection against UOS (ARPE-19 cells) | IgG staining intensity [1] | UOS-induced apoptosis (ARPE-19 cells) | UOS-induced apoptotic cell death (ARPE-19 cells) | IgG staining in the cortex [1] | IgG immunoreactivity in subcortex [1] | IgG immunoreactivity in whole hemisphere (total) [1]
CC/C=C\C/C=C\C/C=C\C/C=C\C/C=C\C/C=C\CCCCCCCCCCCCC(=O)O [32:6n3, (14Z,17Z,20Z,23Z,26Z,29Z)-dotriaconta-14,17,20,23,26,29-hexaenoic acid] | elicit protection against UOS |  |  |  |  |  | 
CC/C=C\C/C=C\C/C=C\C/C=C\C/C=C\C/C=C\CCCCCCCCCCCCCCC(=O)O [34:6n3, (16Z,19Z,22Z,25Z,28Z,31Z)-tetratriaconta-16,19,22,25,28,31-hexaenoic acid] | elicit protection against UOS |  |  |  |  |  | 
CC/C=C\C[C@H](O)\C=C/C=C/C=C/[C@H](O)C/C=C\C/C=C\CCCCCCCCCCCCC(=O)OC [ELV-N32-Me, methyl (14Z,17Z,20R,21E,23E,25Z,27S,29Z)-20,27-dihydroxydotriaconta-14,17,21,23,25,29-hexaenoate] |  | similar |  |  |  |  | 
CC/C=C\C[C@H](O)\C=C/C=C/C=C/[C@H](O)C/C=C\C/C=C\CCCCCCCCCCCCC(=O)[O-].[Na+] [ELV-N32-Na, sodium (14Z,17Z,20R,21E,23E,25Z,27S,29Z)-20,27-dihydroxydotriaconta-14,17,21,23,25,29-hexaenoate] |  | similar | attenuation of apoptosis | attenuated |  |  | 
CC/C=C\C[C@H](O)\C=C/C=C/C=C/[C@H](O)C/C=C\C/C=C\CCCCCCCCCCCCCCC(=O)OC [ELV-N34-Me, methyl (16Z,19Z,22R,23E,25E,27Z,29S,31Z)-22,29-dihydroxytetratriaconta-16,19,23,25,27,31-hexaenoate] |  |  |  | attenuated | significantly less IgG staining | significantly reduced | significantly reduced
CC/C=C\C[C@H](O)\C=C/C=C/C=C/[C@H](O)C/C=C\C/C=C\CCCCCCCCCCCCCCC(=O)[O-].[Na+] [ELV-N34-Na, sodium (16Z,19Z,22R,23E,25E,27Z,29S,31Z)-22,29-dihydroxytetratriaconta-16,19,23,25,27,31-hexaenoate] |  |  | attenuation of apoptosis |  | significantly less IgG staining | significantly reduced | significantly reduced
